Like-named read-outs stand apart in the source and are kept apart here.
Experiments:
[1] = target: T1, FleA (AFL, Aspergillus fumigatus lectin) (Aspergillus fumigatus, UniProt Q4WW81); test: competition plate assay: biotinylated FleA binding to immobilised human airway mucin
T1 construct: about 34 kDa; no canonical signal peptide

[2] = target: T2, PA-IIL (PAIIL) (Pseudomonas aeruginosa, UniProt Q9HYN5); test: competition assay: PA-IIL binding to human airway mucin
T2 construct: gene lecB

[3] = target: T1, FleA (AFL, Aspergillus fumigatus lectin); test: competition plate assay: biotinylated FleA binding to immobilised human airway mucin; conditions: 10 mM CaCl2, TBS-Tween; 100 mM L-galactose

T1 sequence (Q4WW81 whole entry): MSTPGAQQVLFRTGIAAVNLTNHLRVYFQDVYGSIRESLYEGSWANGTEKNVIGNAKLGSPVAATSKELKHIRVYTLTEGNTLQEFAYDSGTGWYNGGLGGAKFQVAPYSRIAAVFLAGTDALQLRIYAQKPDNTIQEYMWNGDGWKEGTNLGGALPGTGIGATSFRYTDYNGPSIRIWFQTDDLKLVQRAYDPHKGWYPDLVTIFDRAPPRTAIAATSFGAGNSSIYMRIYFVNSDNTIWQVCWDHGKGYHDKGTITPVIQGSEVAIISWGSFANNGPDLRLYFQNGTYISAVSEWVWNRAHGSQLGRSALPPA
T2 sequence (Q9HYN5 entry or part of it): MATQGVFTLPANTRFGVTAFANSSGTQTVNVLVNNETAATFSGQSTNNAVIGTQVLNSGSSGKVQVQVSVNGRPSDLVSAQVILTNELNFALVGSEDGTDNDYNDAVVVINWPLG

Row | SMILES | IC50 [1] [µM] | further results
1 | CCC/C=C/CO[C@H]1O[C@H](CO)[C@H](O)[C@H](O)[C@H]1O [(2E)-hexenyl α-D-galactopyranoside] | 15300 | –
2 | CCC/C=C/CO[C@@H]1O[C@@H](C)[C@@H](O)[C@@H](O)[C@@H]1O [(2E)-hexenyl α-L-fucopyranoside] | 0.012 | IC50 [2]: 1.6 µM
3 | CCCCC/C=C/CO[C@@H]1O[C@@H](C)[C@@H](O)[C@@H](O)[C@@H]1O [(2E)-octenyl α-L-fucopyranoside] | 2100 | –
4 | C[C@@H]1OC(O)[C@@H](O)[C@H](O)[C@@H]1O (stereo partly drawn) [L-fucose] | – | IC50 ([1]; 10 mM CaCl2, TBS-Tween, inhibition of FleA-mucin binding): 801 µM
5 | OC[C@@H]1OC(O)[C@@H](O)[C@H](O)[C@@H]1O (stereo partly drawn) [L-galactose] | – | inhibition at 100 mM [3]: No inhibition was observed with galactose (Fig 1A)
6 | C=CCO[C@@H]1O[C@@H](C)[C@@H](O)[C@@H](O)[C@@H]1O [allyl α-L-fucopyranoside] | 264 | –
7 | CCCCCCO[C@@H]1O[C@@H](C)[C@@H](O)[C@@H](O)[C@@H]1O [hexyl α-L-fucopyranoside] | 361 | –
8 | CO[C@@H]1O[C@@H](C)[C@@H](O)[C@@H](O)[C@@H]1O [methyl α-L-fucopyranoside] | 450 | –
